“Also recorded” adds a separate entry of the source.
How the values were obtained:
[1] = tested on: CD4+ T cells of a naive individual (MPL10); test: IFN-γ ELISPOT with CD4+ T cells and autologous dendritic cells of a naive individual (long protocol, three stimulations); format: cell-based, human
Experimental: The immunogenicity was evaluated, with combinations of peptides (combination corresponding to the “Pool H”) at 1 μM for each peptide, from samplings of blood of naive individuals and according to a long protocol with at least three successive stimulations. An IFN-γ ELISPOT test for measuring the frequency of the pre-existing naive T cells and the amplitude of the specific naive T repertoire for each peptide, was performed with the CD4+ T cells and the autologous dendritic cells of a naive individual in the presence or absence of the mixture of peptides, or in the presence of each peptide individually. […] The “Pool H” combination was used either with peptides not modified at the amino-terminal end and with amidation of the carboxy-terminal end, or with peptides chemically modified by a palmitoyl tail at the amino-terminal end and with amidation of the carboxy-terminal end.
The evaluation of the immunogenicity properties of peptide compounds according to the invention in naive individuals, persons who have never been in contact with the Leishmania parasite, is an important factor in predicting the efficacy of a peptide vaccine (Kwok WW et al, 2012, Frequency of epitope-specific naive CD4(+) T cells correlates with immunodominance in the human memory repertoire; Castelli F A et al, 2007, Differential capacity of T cell priming in naive donors of promiscuous CD4+ T cell epitopes of HCV NS3 and Core proteins). Immunogenicity is evaluated in vitro by measuring the frequency of the pre-existing naive T cells and the amplitude of the naive T repertoire specific for each compound. The evaluation is carried out using blood samples from naive individuals and in accordance with a long protocol (Castelli F A, et al. 2007 as aforementioned) putting purified T lymphocytes in contact with autologous dendritic cells previously incubated with the peptides of the invention. The combination of peptides used is composed of: SEQ ID NO: 23, SEQ ID NO: 66, SEQ ID NO: 73, SEQ ID NO: 77, SEQ ID NO: 97, SEQ ID NO: 138, SEQ ID NO: 157, SEQ ID NO: 185, SEQ ID NO: B11, SEQ ID NO: B12 and SEQ ID NO: B13. The compounds were synthesized chemically without amino-terminal modification and with carboxy-terminal (peptide-NH2) amidation (NH2). After three successive stimulations at intervals of seven days of the CD4+ T cells of a naive individual (MPL10; Établissement français du sang de Toulouse), an IFN-γ ELISPOT was carried out with the cells in the presence or absence of the mixture of peptides, or in the presence of each compound individually. […] Each positive line responds to at least one of the peptides of the present invention. The MPL10-3 line responds to the peptides SEQ ID NO: 73 and SEQ ID NO: 157. The MPL10-4 line responds to the peptides SEQ ID NO: 23, SEQ ID NO: 73, SEQ ID NO: 77, SEQ ID NO: 97, SEQ ID NO: 138 and SEQ ID NO: 157. The MPL10-7 line responds to the peptides SEQ ID NO: 77, SEQ ID NO: 97 and SEQ ID NO: 157. The MPL10-8 line responds to the peptides SEQ ID NO: 66, SEQ ID NO: 73, SEQ ID NO: 97, SEQ ID NO: 138 and SEQ ID NO: 157. The MPL10-10 line responds to the peptides SEQ ID NO: 66, SEQ ID NO: 73, SEQ ID NO: 77, SEQ ID NO: 97, SEQ ID NO: 138, SEQ ID NO: 157 and SEQ ID NO: 185. And the MPL10-12 line responds to the peptides SEQ ID NO: 66, SEQ ID NO: 157 and SEQ ID NO: 185.
The evaluation of the immunogenicity properties of peptide compounds of the invention in the same naive individual (MPL10) but with chemically synthesized compounds with the addition of a palmitoylated tail at the amino-terminal end and with an NH2 group at the carboxy-terminal end (PAL-peptide-NH2) was also performed. The same combination of peptides as before was used. After three stimulations with the mixture of PAL-peptide-NH2 peptides, an IFN-g ELISPOT was carried out with the cells in the presence or absence of the mixture of peptides, or in the presence of each peptide individually. […]

HLA alleles of class I = test: Affinity of epitopes for HLA alleles of class I; format: binding, human
Text: The multiepitopic peptide compounds (24 to 40-mer), having a high affinity with a maximized number of HLA molecules of class I and of class II, such as the affinities for the alleles HLA of class I and HLA of class II of the epitopes in the peptides of the sequences SEQ ID NO: 22, 23, 65, 66, 69, 73, 77, 96, 97, 137, 138, and 157, 185, have a high immunoprevalent potential corresponding to an optimal vaccine coverage, in particular for the populations concerned. The degree of coverage of the peptide compounds of the invention show a very high added value compared with the peptides of the prior art.

[2] = tested on: HLA supertypes of class I; test: Affinity of epitopes for HLA supertypes of class I; format: binding, human; conditions: LmLRAB (IA, IB, IC) epitopes, Table 2
Text: HLA molecules are highly polymorphous. This is because there exist more than 2500 HLA proteins of class I (HLA-I) and more than 1000 HLA proteins of class II (HLA-II). However, some of these HLA molecules, close in sequence and in spatial conformation, may have epitopes common to the T cells. The grouping of several thousands of HLA molecules is at the present time described in a little more than 20 or so categories, referred to as “HLA supertypes” having epitopes that are very well preserved for each supertype.

HLA alleles of class II = test: Affinity of epitopes for HLA alleles of class II; format: binding, human; conditions: Table 3
[3] = MPL10-PAL-3 line, PAL-peptide-NH2
[4] = MPL10-PAL-2 line, PAL-peptide-NH2

Substance | IFN-γ ELISPOT response of specific line to individual peptide ([1]; MPL10-4 line, peptide-NH2) | IFN-γ ELISPOT response of specific line to individual peptide [1, 3] | IFN-γ ELISPOT response of specific line to individual peptide ([1]; MPL10-8 line, peptide-NH2) | IFN-γ ELISPOT response of specific line to individual peptide ([1]; MPL10-10 line, peptide-NH2) | IFN-γ ELISPOT response of specific line to individual peptide [1, 4] | also measured
KARYMSMSHRTMKSMSHRTMKIKAINAQMSMMERICTEAA (Leishmania major) [SEQ ID NO: 23] | responds | responds | – | – | – | –
KARYRFAQGEHDIRLPENAFVIARYTQGSSKAGF (Leishmania major) [SEQ ID NO: 73] | responds | responds | responds | responds | responds | IFN-γ ELISPOT response of specific line to individual peptide ([1]; MPL10-3 line, peptide-NH2): responds
KEMPSGSDYSHMSIRDLDFSNMGLLLSGT (KEMPSGSDYSHSMIRDLDFSNMGLLLSGT; listed as Leishmania infantum) [SEQ ID NO: 185] | – | responds | – | responds | responds | IFN-γ ELISPOT response of specific line to individual peptide ([1]; MPL10-12 line, peptide-NH2): responds
KGRLHSVVGRHLSIVADHMPHLDQ (Leishmania major) [SEQ ID NO: 97] | responds | responds | responds | responds | – | IFN-γ ELISPOT response of specific line to individual peptide ([1]; MPL10-7 line, peptide-NH2): responds
KGRSENAIVTSRKVQEEVFDLFTDVHYSEVSAKTK (Leishmania major) [SEQ ID NO: 138] | responds | responds | responds | responds | – | –
KTKQHLREM (Leishmania major) [SEQ ID NO: 68] | – | – | – | – | – | Concatenation affinity for HLA allele of class I (HLA alleles of class I; LmLRAB (IA, IB, IC) epitopes, Table 2): HLA-A*30:01,; also recorded: HLA-A*2602; Affinity for HLA supertypes of class I [2]: HLA-A*01/HLA-A*03,
LTDEKTSLV (listed as Leishmania infantum) [SEQ ID NO: 148] | – | – | – | – | – | Affinity HLA alleles of class I (HLA alleles of class I; PSA KC-2.6 core, Table 3): HLA-A*02:01,; also recorded: HLA-A*02:03,; also recorded: HLA-A*02:06,; also recorded: HLA-A*68:02; Concatenation affinity for HLA alleles of class II (HLA alleles of class II; PSA KC-2.6 core): HLA-DRB1*04:01
MSMSHRTMKSMSHRTMKIKAINAQMSMMERICTEAA (Leishmania major) [SEQ ID NO: 22] | – | – | – | – | responds | –
SDYSHSMIR (listed as Leishmania infantum) [SEQ ID NO: 177] | – | – | – | – | – | Affinity for HLA alleles of class I (HLA alleles of class I; PSA KC-2.7 core, Table 3): HLA-A*31:01,; also recorded: HLA-A*68:01; Concatenation affinity for HLA alleles of class II (HLA alleles of class II; PSA KC-2.7 core): HLA-DRB1*07:01,; also recorded: HLA-DRB5*01:01
SEQ ID NO: 66: multiepitopic peptide compound of overlapping H2B epitopes of sequences SEQ ID NO: 24 to 64; sequence not printed (KGRKPKRSWNVYVGRSLKAINAQMSMSHRTMKIV; Leishmania major) | – | responds | responds | responds | responds | IFN-γ ELISPOT response of specific line to individual peptide ([1]; MPL10-12 line, peptide-NH2): responds

From patent US11559575B2, “Multi-epitopic peptide compounds and vaccines against leishmaniasis” (INSTITUT DE RECHERCHE POUR LE DEVELOPPEMENT, priority 2018, dated 2023)
